Test results as given in patent US9822144B2, “Benzodiazepine dimers, conjugates thereof, and methods of making and using” (priority 2015, dated 2017).

Columns and labels:
Assay type in all cases: cell-based
[1] = test system: N87 gastric cancer cell line; test: Cytotoxic activity of dimers, ATP luminescence or MTS cell proliferation assay; conditions: N87 gastric cancer cells, 72 h
Procedure: (§1) The cytotoxic activity of dimers of this invention was tested against H226 lung cancer, 786-O renal cancer, N87 gastric cancer, and/or OVCAR3 ovarian cancer cell lines. The ability of dimers to inhibit cell proliferation can be measured by either an ATP luminescence assay or an MTS cell proliferation assay.
(§2) This is a general procedure for an ATP luminescence assay: Cells are seeded at 1×10^3 cells/well in 96-well plates for 3 h for ATP CellTiterGlo™ assays, respectively. Serial dilutions (1:3) of compounds are added to the wells. Plates are allowed to incubate for 72 h. A CellTiterGlo™ cell viability kit from Promega is used to measure ATP content of cells treated with test compounds following manufacturer's instruction. A decrease in the ATP content is a measure of decrease in cellular viability. The EC50 value—the concentration at which an agent reduces cell viability by 50% of the maximum effect—can be calculated using PRISM™ software, version 5.0 (GraphPad Software, La Jolla, Calif., USA).
(§3) The MTS cell proliferation assay was performed as follows: CellTiter 96 Aqueous Non-Radioactive Cell proliferation Kit from Promega (Madison, Wis.) is used to determine the number of viable cells in cell proliferation assay. Tumor cells are plated at certain seeding densities in sterile 384-well black clear bottom Matrix plates at 40 μL per well and incubated overnight at 37° C. in 5% CO2 before assaying. On the next day, one set of cell plates (10 plates) is used to determine time zero cell density, and 3-(4,5-dimethylthiazol-2-yl)-5-(3-carboxymethoxyphenyl)-2-(4-sulfophenyl)-2H-tetrazolium is added at 4 μL/well into 10 plates followed by incubation at 37° C. in 5% CO2 for three hours. This tetrazolium reagent is bioreduced by […] to form a formazan product which is soluble in aqueous solution. Absorbance at 490 nm is measured on an Envision reader (Perkin Elmer, Boston, Mass.). On the same day, compounds are added into remaining cell plates (T72 plates) and incubated at 37° C. in 5% CO2. After 72 hours, 4 μL MTS reagents are then added into those cell plates. The plates are further incubated at 37° C. in 5% CO2 for three hours and the absorbance values at A490 were measured on an Envision reader.

[2] = test system: H226 lung cancer cell line; test: as above; conditions: 72 h
Procedure: as §1, §2, §3

[3] = test system: OVCAR3 ovarian cancer cell line; test: as above; conditions: 72 h
Procedure: as §1, §2, §3

[4] = test system: H187 small-cell lung cancer cell line; test: Activity of dimers against small-cell lung cancer cell line (Table IB); conditions: Homo sapiens, NCI-H187, H187 small-cell lung cancer cells
[5] = test system: DMS 79 small-cell lung cancer cell line; test: as above; conditions: Homo sapiens, DMS 79 small-cell lung cancer cells
[6] = Homo sapiens, NCI-H226, H226 lung cancer cells
[7] = Homo sapiens, OVCAR-3, OVCAR3 ovarian cancer cells

Structure (SMILES)	EC50 [1]	EC50 [2, 6]	EC50 [3, 7]	also measured
COc1cc2c(cc1OCCCCCOc1cc3c(cc1OC)C(=O)N1c4ccncc4C[C@H]1C=N3)N=C[C@@H]1Cc3ccccc3CN1C2=O [IIc-01]	280 pM	–	–	–
COc1cc2c(cc1OCCNCCOc1cc3c(cc1OC)C(=O)N1Cc4ccccc4C[C@H]1CN3)N=C[C@@H]1Cc3ccccc3CN1C2=O [IIa-20]	1300 pM	–	–	–
COc1cc2c(cc1OCCCOc1cc3c(cc1OC)C(=O)N1Cc4ccccc4C[C@H]1CN3)N=C[C@@H]1Cc3ccccc3CN1C2=O [IIa-03]	460 pM	–	–	EC50 ([2]; H226 lung cancer cells): 410 pM; EC50 ([3]; OVCAR3 ovarian cancer cells): 180 pM
COc1cc2c(cc1OCCNCCOc1cc3c(cc1OC)C(=O)N1Cc4ccccc4C[C@H]1C=N3)N=C[C@@H]1Cc3ccccc3CN1C2=O [IIa-16, (6aS,6a′S)-3,3′-((azanediylbis(ethane-2,1-diyl))bis(oxy))bis(2-methoxy-6a,7-dihydrobenzo[5,6][1,4]diazepino[1,2-b]isoquinolin-14(12H)-one)]	–	188 pM	–	IC50 [4]: 0.005 nM; IC50 [5]: 0.006 nM
COc1cc2c(cc1OCCCOc1cc3c(cc1OC)C(=O)N1Cc4ccccc4C[C@H]1CN3)NC[C@@H]1Cc3ccccc3CN1C2=O [IIa-04]	5700 pM	8000 pM	2600 pM	–
COc1ccc2c(c1)CN1C(=O)c3cc(OC)c(OCCCOc4cc5c(cc4OC)C(=O)N4C=C(c6ccc(N)cc6)C[C@H]4C=N5)cc3N=C[C@@H]1C2 [IIb-03]	110 pM	150 pM	330 pM	IC50 [4]: 0.002 nM; IC50 [5]: 0.003 nM
COc1cc2c(cc1OCCCOc1cc3c(cc1OC)C(=O)N1Cc4ccccc4C[C@H]1C=N3)N=C[C@@H]1Cc3ccccc3CN1C2=O [IIa-01]	16 pM	–	150 pM	–
COc1cc2c(cc1OCCCCCOc1cc3c(cc1OC)C(=O)N1Cc4ccccc4C[C@H]1C=N3)N=C[C@@H]1Cc3ccccc3CN1C2=O [IIa-02]	49 to 150 pM	–	–	EC50 ([2]; H226 lung cancer cells): 46 to 180 pM; EC50 ([3]; OVCAR3 ovarian cancer cells): 77 to 120 pM
COc1cc2c(cc1OCCCCCOc1cc3c(cc1OC)C(=O)N1Cc4cc(N)ccc4C[C@H]1C=N3)N=C[C@@H]1Cc3ccccc3CN1C2=O [IIa-10]	30 pM	20 pM	20 pM	–
COc1cc2c(cc1OCc1cc(COc3cc4c(cc3OC)C(=O)N3Cc5ccccc5C[C@H]3C=N4)cc(N=[N+]=[N-])c1)N=C[C@@H]1Cc3ccccc3CN1C2=O [IIa-22]	50 pM	–	–	–
COc1cc2c(cc1OCc1cccc(COc3cc4c(cc3OC)C(=O)N3Cc5ccccc5C[C@H]3C=N4)c1)N=C[C@@H]1Cc3ccccc3CN1C2=O [IIa-21]	20 pM	–	–	–
COc1cc2c(cc1OCc1cc(N)cc(COc3cc4c(cc3OC)C(=O)N3Cc5ccccc5C[C@H]3C=N4)c1)N=C[C@@H]1Cc3ccccc3CN1C2=O [IIa-05, (6aS,6a′S)-3,3′-(((5-amino-1,3-phenylene)bis(methylene))bis(oxy))bis(2-methoxy-6a,7-dihydrobenzo[5,6][1,4]diazepino[1,2-b]isoquinolin-14(12H)-one)]	150 pM	150 pM	90 pM	–
COc1cc2c(cc1OCC(N)COc1cc3c(cc1OC)C(=O)N1Cc4ccccc4C[C@H]1C=N3)N=C[C@@H]1Cc3ccccc3CN1C2=O [IIa-18]	–	–	–	EC50 ([2]; H226 lung cancer cells): 3200 pM
COc1cc2c(cc1OCCCCCOc1cc3c(cc1OC)C(=O)N1Cc4ccccc4C[C@H]1C=N3)N=C[C@@H]1CCCN1C2=O [IIb-01]	330 pM	440 pM	220 pM	–
